Source: patent publication US8722849B2, “Polypeptides” (Novo Nordisk A/S, priority 2011, dated 2014)
≈ marks a conversion by molar mass, not a printed value. Where two headings read alike, the source gives them in different places. Starred links: 1 amine or outer side, 2 acyl side, 3 side chain; linkers in the order of their positions; H or OH if unused. Positions of bridges follow the written chain, without caps; N, C: chain ends. Non-standard residues stand in square brackets, D forms with d. Residues, ends and D or L forms follow the SMILES beside them. *: point of attachment. C20 diacid = O=C(O)CCCCCCCCCCCCCCCCCCC(=O)*; γGlu = O=C(O)[C@H](CCC(=O)[*:2])N[*:1]; AEEA = NCCOCCOCC(=O)O

Key:
[1] = target: T1, human amylin receptor (amylin 3(a) receptor: human calcitonin receptor + RAMP-3) (Homo sapiens, UniProt O60896+P30988); test: Assay (II)a functional CRE-luciferase assay, human amylin receptor; type: cell-based
T1 construct: expressed in transfected cells; host or cells: BHK570
T1 sequence (P30988 25-474): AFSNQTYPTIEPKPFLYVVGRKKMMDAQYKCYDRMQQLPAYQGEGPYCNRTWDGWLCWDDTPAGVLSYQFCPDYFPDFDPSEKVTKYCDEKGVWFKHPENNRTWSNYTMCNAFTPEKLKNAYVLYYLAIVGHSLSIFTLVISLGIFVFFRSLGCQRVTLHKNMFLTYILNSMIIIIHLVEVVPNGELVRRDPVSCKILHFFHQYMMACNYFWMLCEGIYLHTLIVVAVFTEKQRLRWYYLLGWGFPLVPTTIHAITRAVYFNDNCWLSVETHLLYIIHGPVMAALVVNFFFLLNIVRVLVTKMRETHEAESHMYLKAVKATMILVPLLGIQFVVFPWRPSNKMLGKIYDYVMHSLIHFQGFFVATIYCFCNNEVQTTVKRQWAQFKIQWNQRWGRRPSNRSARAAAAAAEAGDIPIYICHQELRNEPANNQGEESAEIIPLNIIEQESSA
T1 sequence (O60896 24-148 partner): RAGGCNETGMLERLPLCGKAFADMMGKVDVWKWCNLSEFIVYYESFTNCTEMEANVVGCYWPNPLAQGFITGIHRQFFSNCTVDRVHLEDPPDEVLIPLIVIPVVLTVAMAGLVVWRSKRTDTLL

[2] = target: T2, human calcitonin receptor (Homo sapiens, UniProt P30988); test: Assay (II)a functional CRE-luciferase assay, human calcitonin receptor; type: cell-based
T2 construct: expressed in transfected cells; host or cells: BHK570
T2 sequence (P30988 25-474): T1 sequence (P30988 25-474)

[3] = target: T3, rat amylin 3(a) receptor (rat calcitonin(a) receptor + rat RAMP3) (Rattus norvegicus, UniProt P32214+Q9JJ73); test: Assay (II)b functional cAMP FlashPlate assay, rat amylin receptor; type: cell-based; details: Table 11
T3 construct: expressed in transfected cells; host or cells: BHK tk'ts 13
T3 sequence (P32214 25-479 isoform P32214-2 limits assumed): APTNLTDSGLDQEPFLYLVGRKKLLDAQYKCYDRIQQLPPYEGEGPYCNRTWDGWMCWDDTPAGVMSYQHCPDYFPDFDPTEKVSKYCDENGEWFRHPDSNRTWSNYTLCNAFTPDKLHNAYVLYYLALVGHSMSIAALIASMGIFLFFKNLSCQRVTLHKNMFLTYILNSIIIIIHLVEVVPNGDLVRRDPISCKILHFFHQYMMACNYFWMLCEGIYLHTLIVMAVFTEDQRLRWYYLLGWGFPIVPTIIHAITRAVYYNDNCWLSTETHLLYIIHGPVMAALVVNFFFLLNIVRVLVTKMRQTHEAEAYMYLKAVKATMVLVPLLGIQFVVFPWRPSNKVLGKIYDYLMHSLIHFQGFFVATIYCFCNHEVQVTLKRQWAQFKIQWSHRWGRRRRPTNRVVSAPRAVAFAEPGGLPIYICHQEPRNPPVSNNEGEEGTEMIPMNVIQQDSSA
T3 sequence (Q9JJ73 23-147 partner): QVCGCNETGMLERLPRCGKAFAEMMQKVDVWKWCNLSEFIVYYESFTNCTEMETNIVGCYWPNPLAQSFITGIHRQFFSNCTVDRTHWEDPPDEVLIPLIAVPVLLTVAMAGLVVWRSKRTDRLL
Description: (§1) Assay (II)b—Rat Calcitonin and Rat Amylin Receptor Assays
(§2) Activation of calcitonin and amylin (coexpression of calcitonin receptor and receptor activity modifying proteins (RAMP)) receptors lead to increased intracellular concentrations of cAMP. In order to quantify the cAMP levels in transiently transfected cells the Adenylyl Cyclase Activation FlashPlate® Assay from […] was used. The basic principle of the FlashPlate® Assay is a competition between radioactive and non-radioactive cAMP generated by the cells for a fixed number of binding sites.
(§3) Construction of rat calcitonin(a)—and rat amylin 3(a)-receptor cells.
(§4) BHK tk'ts 13 cells were transiently transfected with either rat calcitonin (a) receptor or amylin 3 (a) receptor (rat calcitonin(a) receptor+ rat RAMP3) using FuGENE® 6 (ROCHE), according to the manufacturers recommendations.
(§5) 24 hours after transient transfection the cells (rat calcitonin(a)—or rat amylin 3(a)—receptor cells) were added (100.000 cells/well) to the 96 well FlashPlates® with samples or standard in FlashPlate stimulation buffer with IBMX and incubated for 30 min. Detection mix was created according to manufacturers protocol and scintillation measured after 3 h of incubation on TopCounter™ (Packard).

[4] = target: T4, rat calcitonin (a) receptor (Rattus norvegicus, UniProt P32214); test: Assay (II)b functional cAMP FlashPlate assay, rat calcitonin receptor; type: cell-based; details: Table 11; read-out: CTa receptor rat EC50
T4 construct: expressed in transfected cells; host or cells: BHK tk'ts 13
T4 sequence (P32214 25-479 isoform P32214-2 limits assumed): T3 sequence (P32214 25-479 isoform P32214-2 limits assumed)
Description: as §1, §2, §3, §4, §5

[5] = Assay (IV) determination of solubility; type: physicochemical
How it was run: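 Solubility was profiled across pH 3.0–8.0 after 18 hours at room temperature: a ~500 nmol/ml aqueous polypeptide solution was diluted 1:1 into 100 mM glycylglycine or bistrispropane buffers. After centrifugation, HPLC gave the dissolved concentration.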

[6] = Table 2, BHK amylin 3(a)-receptor/CRE-luc cells
[7] = Table 3, BHK amylin 3(a)-receptor/CRE-luc cells
[8] = Table 7, human calcitonin (CTa) receptor
[9] = Table 11, read-out: CTa receptor human EC50
[10] = pH 3, pH 3.0, read-out: Solubility pH 3.0
[11] = pH 4, pH 4.0, 18 hours at room temperature, Table 2, read-out: Solubility pH 4.0
[12] = pH 4, pH 4.0, read-out: Solubility pH 4.0
[13] = pH 5, pH 5.0, read-out: Solubility pH 5.0
[14] = pH 6, pH 6.0, read-out: Solubility pH 6.0
[15] = pH 7.5, pH 7.5, read-out: Solubility pH 7.5
[16] = pH 8, pH 8.0, read-out: Solubility pH 8.0

With `CC[C@H](C)[C@H](NC(=O)[C@@H]1CCCN1C(=O)CNC(=O)[C@H](Cc1ccccc1)NC(=O)[C@H](CC(N)=O)NC(=O)[C@H](CC(N)=O)NC(=O)[C@H](CO)NC(=O)[C@H](CO)NC(=O)[C@H](CCCNC(=N)N)NC(=O)[C@H](Cc1cnc[nH]1)NC(=O)[C@H](CC(C)C)NC(=O)[C@H](Cc1ccccc1)NC(=O)[C@H](CCC(=O)O)NC(=O)[C@H](C)NC(=O)[C@H](CC(C)C)NC(=O)[C@H](CCCNC(=N)N)NC(=O)[C@H](CCC(N)=O)NC(=O)[C@@H](NC(=O)[C@H](C)NC(=O)[C@@H]1CSSC[C@H](NC(=O)[C@H](CCCCN)NC(=O)[C@@H](CCCNC(=N)N)NC(=O)[C@@H](CCCNC(=N)N)NC(=O)COCCOCCNC(=O)COCCOCCNC(=O)CC[C@H](NC(=O)CCCCCCCCCCCCCCCCCCC(=O)O)C(=O)O)C(=O)N[C@@H](CC(N)=O)C(=O)N[C@@H]([C@@H](C)O)C(=O)N[C@@H](C)C(=O)N[C@@H]([C@@H](C)O)C(=O)N1)[C@@H](C)O)C(=O)N[C@@H](CC(C)C)C(=O)N1CCC[C@H]1C(=O)N1CCC[C@H]1C(=O)N[C@H](C(=O)N[C@@H](CC(N)=O)C(=O)N[C@H](C(=O)NCC(=O)N[C@@H](CO)C(=O)N[C@@H](CC(N)=O)C(=O)N[C@H](C(=O)N[C@@H](Cc1ccc(O)cc1)C(N)=O)[C@@H](C)O)C(C)C)[C@@H](C)O` [Example 37, N-alpha-[2-(2-{2-[2-(2-{2-[(S)-4-Carboxy-4-(19-carboxyheptadecanoylamino)butyrylamino]ethoxy}ethoxy)acetylamino]ethoxy}ethoxy)acetyl]-D-Arg-D-Arg-[Glu14,His17,Arg18]-pramlintide] ({C20 diacid-γGlu-AEEA-AEEA}-[dR][dR]KCNTATCATQRLAEFLHRSSNNFGPILPPTNVGSNTY-NH2; disulfide 4-9) the EC50 [1, 6] was 83.2 pM, the EC50 [1, 7] was 83.2 pM and the EC50 ([1]; Table 4) was 83.2 pM. It also gave an EC50 ([1]; Table 5) of 83.2 pM, an EC50 ([1]; Table 6, human amylin receptor) of 83.2 pM and an EC50 ([1]; Table 7, human amylin receptor) of 83.2 pM. The EC50 ([1]; Table 8) was 83.2 pM, the EC50 ([1]; Table 11) was 83.2 pM and the EC50 [2, 8] was 642 pM. It also gave an EC50 [2, 9] of 642 pM, an EC50 [3] of 132 pM and an EC50 [4] of 1890 pM. The solubility [5, 10] was > 200 µM, the solubility [5, 11] was > 200 µM and the solubility [5, 12] was > 200 µM. The solubility [5, 13] was > 200 µM, the solubility [5, 14] was > 200 µM and the solubility at 18 h ([5]; pH 6.5, read-out: Solubility pH 6.5) was 124 µM (≈ 630 µg/mL). For the same compound, the “Solubility pH 7.0 (μM)” value ([5]; pH 7.0, 18 hours at room temperature, Table 3) was 198 μM, the solubility at 18 h ([5]; pH 7.0, Table 8, read-out: Solubility pH 7.0) was 198 µM (≈ 1010 µg/mL) and the solubility at 18 h ([5]; pH 7.0, read-out: Solubility pH 7.0) was 198 µM (≈ 1010 µg/mL). The solubility [5, 15] was > 200 µM and the solubility [5, 16] was > 200 µM.
`CC[C@H](C)[C@H](NC(=O)[C@@H]1CCCN1C(=O)CNC(=O)[C@H](Cc1ccccc1)NC(=O)[C@H](CC(N)=O)NC(=O)[C@H](C)NC(=O)[C@H](CO)NC(=O)[C@H](CO)NC(=O)[C@H](CCCNC(=N)N)NC(=O)[C@H](Cc1cnc[nH]1)NC(=O)[C@H](CC(C)C)NC(=O)[C@H](Cc1ccccc1)NC(=O)[C@H](CCC(=O)O)NC(=O)[C@H](C)NC(=O)[C@H](CC(C)C)NC(=O)[C@H](CCCNC(=N)N)NC(=O)[C@H](CCC(N)=O)NC(=O)[C@@H](NC(=O)[C@H](C)NC(=O)[C@@H]1CSSC[C@H](NC(=O)[C@H](CCCCN)NC(=O)[C@@H](CCCNC(=N)N)NC(=O)[C@@H](CCCNC(=N)N)NC(=O)COCCOCCNC(=O)COCCOCCNC(=O)CC[C@H](NC(=O)CCCCCCCCCCCCCCCCCCC(=O)O)C(=O)O)C(=O)N[C@@H](CC(N)=O)C(=O)N[C@@H]([C@@H](C)O)C(=O)N[C@@H](C)C(=O)N[C@@H]([C@@H](C)O)C(=O)N1)[C@@H](C)O)C(=O)N[C@@H](CC(C)C)C(=O)N1CCC[C@H]1C(=O)N1CCC[C@H]1C(=O)N[C@H](C(=O)N[C@@H](CC(N)=O)C(=O)N[C@H](C(=O)NCC(=O)N[C@@H](CO)C(=O)N[C@@H](CO)C(=O)N[C@H](C(=O)N[C@@H](Cc1ccc(O)cc1)C(N)=O)[C@@H](C)O)C(C)C)[C@@H](C)O` [Example 38, N-alpha-[2-(2-{2-[2-(2-{2-[(S)-4-Carboxy-4-(19-carboxyheptadecanoylamino)butyrylamino]ethoxy}ethoxy)acetylamino]ethoxy}ethoxy)acetyl]-D-Arg-D-Arg-[Glu14,His17,Arg18,Ala21,Ser35]-pramlintide] ({C20 diacid-γGlu-AEEA-AEEA}-[dR][dR]KCNTATCATQRLAEFLHRSSANFGPILPPTNVGSSTY-NH2; disulfide 4-9) gave an EC50 [1, 6] of 149 pM, an EC50 [1, 7] of 149 pM and an EC50 ([1]; Table 4) of 149 pM. For the same compound, the EC50 ([1]; Table 5) was 149 pM, the EC50 ([1]; Table 6, human amylin receptor) was 149 pM and the EC50 ([1]; Table 7, human amylin receptor) was 149 pM. For the same compound, the EC50 ([1]; Table 8) was 149 pM, the EC50 ([1]; Table 9) was 149 pM and the EC50 ([1]; Table 11) was 149 pM. For the same compound, the EC50 [2, 8] was 1110 pM, the EC50 [2, 9] was 1110 pM and the EC50 [3] was 233 pM. The EC50 [4] was 4480 pM, the solubility [5, 10] was > 200 µM and the solubility [5, 11] was > 200 µM. For the same compound, the solubility [5, 12] was > 200 µM, the solubility [5, 13] was > 200 µM and the solubility [5, 14] was > 200 µM. For the same compound, the solubility ([5]; pH 6.5, pH 6.5, read-out: Solubility pH 6.5) was > 200 µM, the solubility ([5]; pH 7, pH 7.0, 18 hours at room temperature, Table 3, read-out: Solubility pH 7.0) was > 200 µM and the solubility ([5]; pH 7, pH 7.0, Table 8, read-out: Solubility pH 7.0) was > 200 µM. The solubility ([5]; pH 7, pH 7.0, Table 9, read-out: Solubility pH 7.0) was > 200 µM, the solubility ([5]; pH 7, pH 7.0, read-out: Solubility pH 7.0) was > 200 µM and the solubility ([5]; pH 7.5, pH 7.5, Table 9, read-out: Solubility pH 7.5) was > 200 µM. For the same compound, the solubility [5, 15] was > 200 µM and the solubility [5, 16] was > 200 µM.
